Test system: 323965-272-R-J2-PDC complex spheroid growth, % test/control
Assay: Anticancer human tumor 323965-272-R-J2-PDC patient-derived pancreatic carcinoma cell line growth inhibition [Asc]
Details: for IC50: curve of first compound; for viability, T/C: stronger effect = lower value
Summary of the method: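 Stromal components (HUVEC and hMSC) are co-assembled with the cancer cells into multicellular spheroids. Drugs are then added singly or paired, at concentrations falling by half-log increments from a clinically achievable maximum, capped at 10 microM without known Cmax.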

[1] = second compound 0.0316 µM, first compound 0.0316 µM
[2] = second compound 0.0316 µM, first compound 0.1 µM
[3] = second compound 0.0316 µM, first compound 0.316 µM
[4] = second compound 0.0316 µM, first compound 1 µM
[5] = second compound 0.1 µM, first compound 0.0316 µM
[6] = second compound 0.1 µM, first compound 0.1 µM
[7] = second compound 0.1 µM, first compound 0.316 µM
[8] = second compound 0.1 µM, first compound 1 µM
[9] = second compound 0.316 µM, first compound 0.0316 µM
[10] = second compound 0.316 µM, first compound 0.1 µM
[11] = second compound 0.316 µM, first compound 0.316 µM
[12] = second compound 0.316 µM, first compound 1 µM
[13] = second compound 1 µM, first compound 0.0316 µM
[14] = second compound 1 µM, first compound 0.1 µM
[15] = second compound 1 µM, first compound 0.316 µM
[16] = second compound 1 µM, first compound 1 µM
[17] = second compound 3.16 µM, first compound 0.0316 µM
[18] = second compound 3.16 µM, first compound 0.1 µM
[19] = second compound 3.16 µM, first compound 0.316 µM
[20] = second compound 3.16 µM, first compound 1 µM
[21] = second compound 10 µM, first compound 0.0316 µM
[22] = second compound 10 µM, first compound 0.1 µM
[23] = second compound 10 µM, first compound 0.316 µM
[24] = second compound 10 µM, first compound 1 µM
[25] = second compound 0.0316 µM, first compound 0.00316 µM
[26] = second compound 0.0316 µM, first compound 0.01 µM
[27] = second compound 0.1 µM, first compound 0.00316 µM
[28] = second compound 0.1 µM, first compound 0.01 µM
[29] = second compound 0.316 µM, first compound 0.00316 µM
[30] = second compound 0.316 µM, first compound 0.01 µM
[31] = second compound 1 µM, first compound 0.00316 µM
[32] = second compound 1 µM, first compound 0.01 µM
[33] = second compound 3.16 µM, first compound 0.00316 µM
[34] = second compound 3.16 µM, first compound 0.01 µM
[35] = second compound 10 µM, first compound 0.00316 µM
[36] = second compound 10 µM, first compound 0.01 µM
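Note: compound exposure lasted 7 days starting three days after spheroid seeding.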
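Throughout, for viability, T/C: 100% = DMSO vehicle control wells with viability set relative to vehicle.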

Structure (SMILES): C=CC(=O)N1CCN(c2nc(=O)n(-c3c(C)ccnc3C(C)C)c3nc(-c4c(O)cccc4F)c(F)cc23)C(C)C1 (stereo unspecified) + Cc1c(S(C)(=O)=O)c(-c2cc(F)cc(N3CCN(c4ccc(NS(=O)(=O)c5ccc(NC(CCN6CCC(C(=O)OCCCP(=O)(O)O)CC6)CSc6ccccc6)c(S(=O)(=O)C(F)(F)F)c5)cc4)CC3)c2)c(-c2ccc(Cl)cc2)n1C(C)C
- IC50 (second compound 0.0316 µM): > 10 µM
- IC50 (second compound 0.1 µM): > 10 µM
- IC50 (second compound 0.316 µM): > 10 µM
- IC50 (second compound 1 µM): > 10 µM
- IC50 (second compound 3.16 µM): 0.0793 µM
- IC50 (second compound 10 µM): < 0.0316 µM
- viability, T/C [1]: 82.1%
- viability, T/C [2]: 64.8%
- viability, T/C [3]: 65.9%
- viability, T/C [4]: 62.3%
- viability, T/C (second compound 0.0316 µM, first compound 3.16 µM): 63.7%
- viability, T/C (second compound 0.0316 µM, first compound 10 µM): 67%
- viability, T/C [5]: 74.3%
- viability, T/C [6]: 64.4%
- viability, T/C [7]: 68%
- viability, T/C [8]: 64.2%
- viability, T/C (second compound 0.1 µM, first compound 3.16 µM): 66.7%
- viability, T/C (second compound 0.1 µM, first compound 10 µM): 56.8%
- viability, T/C [9]: 76.8%
- viability, T/C [10]: 60.1%
- viability, T/C [11]: 56.1%
- viability, T/C [12]: 59%
- viability, T/C (second compound 0.316 µM, first compound 3.16 µM): 58.6%
- viability, T/C (second compound 0.316 µM, first compound 10 µM): 53.5%
- viability, T/C [13]: 65.3%
- viability, T/C [14]: 59.5%
- viability, T/C [15]: 57%
- viability, T/C [16]: 54.5%
- viability, T/C (second compound 1 µM, first compound 3.16 µM): 61.4%
- viability, T/C (second compound 1 µM, first compound 10 µM): 46%
- viability, T/C [17]: 62.2%
- viability, T/C [18]: 47.4%
- viability, T/C [19]: 43.2%
- viability, T/C [20]: 38.4%
- viability, T/C (second compound 3.16 µM, first compound 3.16 µM): 43.8%
- viability, T/C (second compound 3.16 µM, first compound 10 µM): 44%
- viability, T/C [21]: 48.2%
- viability, T/C [22]: 40.9%
- viability, T/C [23]: 39.7%
- viability, T/C [24]: 40.5%
- viability, T/C (second compound 10 µM, first compound 3.16 µM): 44.9%
- viability, T/C (second compound 10 µM, first compound 10 µM): 39%

Structure (SMILES): COc1c(OCCCN2CCOCC2)ccc2c3n(c(=NC(=O)c4cnc(N)nc4)nc12)CCN3 + Cc1c(S(C)(=O)=O)c(-c2cc(F)cc(N3CCN(c4ccc(NS(=O)(=O)c5ccc(NC(CCN6CCC(C(=O)OCCCP(=O)(O)O)CC6)CSc6ccccc6)c(S(=O)(=O)C(F)(F)F)c5)cc4)CC3)c2)c(-c2ccc(Cl)cc2)n1C(C)C
- IC50 (second compound 0.0316 µM): 0.166 µM
- IC50 (second compound 0.1 µM): 0.18 µM
- IC50 (second compound 0.316 µM): 0.116 µM
- IC50 (second compound 1 µM): 0.106 µM
- IC50 (second compound 3.16 µM): 0.0771 µM
- IC50 (second compound 10 µM): 0.0365 µM
- viability, T/C [25]: 110%
- viability, T/C [26]: 97.1%
- viability, T/C [1]: 86.4%
- viability, T/C [2]: 58.3%
- viability, T/C [3]: 37.9%
- viability, T/C [4]: 24.8%
- viability, T/C [27]: 100%
- viability, T/C [28]: 99.5%
- viability, T/C [5]: 73.8%
- viability, T/C [6]: 60.1%
- viability, T/C [7]: 42.4%
- viability, T/C [8]: 25.8%
- viability, T/C [29]: 107%
- viability, T/C [30]: 98.9%
- viability, T/C [9]: 71.5%
- viability, T/C [10]: 49%
- viability, T/C [11]: 42.3%
- viability, T/C [12]: 23.9%
- viability, T/C [31]: 94.1%
- viability, T/C [32]: 81.8%
- viability, T/C [13]: 74.9%
- viability, T/C [14]: 49.9%
- viability, T/C [15]: 32.4%
- viability, T/C [16]: 23.1%
- viability, T/C [33]: 73.2%
- viability, T/C [34]: 71.5%
- viability, T/C [17]: 63.2%
- viability, T/C [18]: 46%
- viability, T/C [19]: 29.4%
- viability, T/C [20]: 21.3%
- viability, T/C [35]: 73.2%
- viability, T/C [36]: 67.7%
- viability, T/C [21]: 48.1%
- viability, T/C [22]: 39.4%
- viability, T/C [23]: 28.9%
- viability, T/C [24]: 19.3%

Structure (SMILES): NC1CCC(NC2CC2c2ccccc2)CC1 (stereo unspecified) + Cc1c(S(C)(=O)=O)c(-c2cc(F)cc(N3CCN(c4ccc(NS(=O)(=O)c5ccc(NC(CCN6CCC(C(=O)OCCCP(=O)(O)O)CC6)CSc6ccccc6)c(S(=O)(=O)C(F)(F)F)c5)cc4)CC3)c2)c(-c2ccc(Cl)cc2)n1C(C)C
- IC50 (second compound 0.0316 µM): > 0.1 µM
- IC50 (second compound 0.1 µM): > 0.1 µM
- IC50 (second compound 0.316 µM): > 0.1 µM
- IC50 (second compound 1 µM): > 0.1 µM
- IC50 (second compound 3.16 µM): > 0.1 µM
- IC50 (second compound 10 µM): > 0.1 µM
- viability, T/C (second compound 0.0316 µM, first compound 0.000316 µM): 105%
- viability, T/C (second compound 0.0316 µM, first compound 0.001 µM): 107%
- viability, T/C [25]: 107%
- viability, T/C [26]: 109%
- viability, T/C [1]: 122%
- viability, T/C [2]: 112%
- viability, T/C (second compound 0.1 µM, first compound 0.000316 µM): 105%
- viability, T/C (second compound 0.1 µM, first compound 0.001 µM): 99.2%
- viability, T/C [27]: 120%
- viability, T/C [28]: 113%
- viability, T/C [5]: 109%
- viability, T/C [6]: 99%
- viability, T/C (second compound 0.316 µM, first compound 0.000316 µM): 108%
- viability, T/C (second compound 0.316 µM, first compound 0.001 µM): 101%
- viability, T/C [29]: 96.6%
- viability, T/C [30]: 103%
- viability, T/C [9]: 104%
- viability, T/C [10]: 102%
- viability, T/C (second compound 1 µM, first compound 0.000316 µM): 94.4%
- viability, T/C (second compound 1 µM, first compound 0.001 µM): 100%
- viability, T/C [31]: 93.9%
- viability, T/C [32]: 106%
- viability, T/C [13]: 96.5%
- viability, T/C [14]: 92.2%
- viability, T/C (second compound 3.16 µM, first compound 0.000316 µM): 84.5%
- viability, T/C (second compound 3.16 µM, first compound 0.001 µM): 82.1%
- viability, T/C [33]: 81.5%
- viability, T/C [34]: 76.5%
- viability, T/C [17]: 90%
- viability, T/C [18]: 81.2%
- viability, T/C (second compound 10 µM, first compound 0.000316 µM): 83%
- viability, T/C (second compound 10 µM, first compound 0.001 µM): 70.1%
- viability, T/C [35]: 66.5%
- viability, T/C [36]: 84%
- viability, T/C [21]: 81.9%
- viability, T/C [22]: 73%

Source: PubChem BioAssay AID1963425 (Molecular Pharmacology Branch, DTP, NCI, 2024)
